Test results as given in EP0019589A1, “Tripeptide derivatives and their use in a process for determining enzymes” (Pentapharm A.G., priority 1979, dated 1980).
Non-standard residues stand in square brackets, D forms with d. Residues, ends and D or L forms follow the SMILES beside them. *: point of attachment. dCha = N[C@H](CC1CCCCC1)C(=O)O; dChg = N[C@@H](C(=O)O)C1CCCCC1; dPhg = N[C@@H](C(=O)O)c1ccccc1; pNA = O=[N+]([O-])c1ccc(N*)cc1; Chg = N[C@H](C(=O)O)C1CCCCC1; Phg = N[C@H](C(=O)O)c1ccccc1; dNva = CCC[C@@H](N)C(=O)O; dPip = O=C(O)[C@H]1CCCCN1

Legend:
Assay type in all cases: biochemical
[1] = biological target: T1, Humanplasmin (Homo sapiens, UniProt P00747); experiment: Cleavage of chromogenic substrate by human plasmin; details: 1 CU-Einheit human plasmin, per min; Substratkonzentration 2 x 10^-4 molar
T1 construct: da bei der Aktivierung aus 1 Molekül Plasminogen 1 Molekül Plasmin entsteht
T1 sequence (P00747 581-810 limits assumed): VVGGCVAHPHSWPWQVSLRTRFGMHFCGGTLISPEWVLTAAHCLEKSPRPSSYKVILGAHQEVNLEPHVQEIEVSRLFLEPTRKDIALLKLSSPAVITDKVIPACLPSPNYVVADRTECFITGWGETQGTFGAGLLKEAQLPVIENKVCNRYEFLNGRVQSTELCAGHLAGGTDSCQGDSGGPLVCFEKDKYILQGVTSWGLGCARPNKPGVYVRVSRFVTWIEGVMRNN
T1 sequence (P00747 97-580 partner limits assumed): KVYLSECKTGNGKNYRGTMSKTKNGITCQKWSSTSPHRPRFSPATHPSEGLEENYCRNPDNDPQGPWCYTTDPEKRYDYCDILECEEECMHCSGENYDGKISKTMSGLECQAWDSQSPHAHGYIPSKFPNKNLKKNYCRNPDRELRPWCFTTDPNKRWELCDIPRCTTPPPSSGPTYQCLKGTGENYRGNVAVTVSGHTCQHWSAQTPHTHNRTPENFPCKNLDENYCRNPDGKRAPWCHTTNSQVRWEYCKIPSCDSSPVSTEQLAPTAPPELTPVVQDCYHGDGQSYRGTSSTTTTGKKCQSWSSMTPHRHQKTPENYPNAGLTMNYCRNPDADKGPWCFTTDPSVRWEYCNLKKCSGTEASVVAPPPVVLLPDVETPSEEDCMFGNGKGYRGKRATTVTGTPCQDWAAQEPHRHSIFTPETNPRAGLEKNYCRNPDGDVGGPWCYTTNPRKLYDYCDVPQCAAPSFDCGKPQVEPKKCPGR

[2] = biological target: T2, Submandibularis-Kallikrein (Homo sapiens, UniProt P06870); experiment: Cleavage of chromogenic substrate by submandibular (glandular) kallikrein in human sputum; details: 1 ml human sputum, per min; Substratkonzentration 2 x 10^-4 molar
T2 construct: Man mischt 0,5 ml Sputum mit 2 ml TRIS-Imidazol-Puffer; from tissue; host or cells: human sputum
T2 sequence (P06870 25-262): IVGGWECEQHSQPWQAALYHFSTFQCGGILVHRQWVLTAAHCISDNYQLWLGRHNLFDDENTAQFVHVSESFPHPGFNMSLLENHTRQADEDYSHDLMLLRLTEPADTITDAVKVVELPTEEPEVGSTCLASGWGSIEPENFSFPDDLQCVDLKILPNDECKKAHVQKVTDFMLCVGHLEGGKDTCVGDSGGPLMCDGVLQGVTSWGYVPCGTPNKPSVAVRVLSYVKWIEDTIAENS
Outline: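 Sputum mixed with TRIS-imidazole buffer (ionic strength 1.0), preincubated 5 min at 37°C and centrifuged; supernatant incubated with aqueous substrate solution (2 x 10^-3 M, stock). p-Nitroaniline release followed continuously at 405 nm for 5-10 min; activity expressed as mU per ml sputum from ΔOD/min.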

[3] = biological target: T3, Humanthrombin (Homo sapiens, UniProt P00734); experiment: Cleavage of chromogenic substrate by human NIH thrombin; details: 1 NIH-Einheit human thrombin, per min; Substratkonzentration 2 x 10^-4 molar
T3 construct: Humanplasmin und hu-manem NIH-Thrombin
Outline: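 Thrombin hydrolysis of chromogenic p-nitroanilide substrate read spectrophotometrically at 405 nm; fluorogenic naphthylamine, methylcoumarylamine or di(methoxycarbonyl)phenylamine substrates read continuously by fluorescence emission at 400-470 nm. Activity taken as product formed per unit time; 1 µmol product/min defined as 1 enzyme unit for a given substrate.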

[4] = biological target: T4, Urinkallikrein (Homo sapiens, UniProt P06870); experiment: Cleavage of chromogenic substrate by urinary kallikrein in human urine; details: 1 ml human urine (pooled morning urine of healthy persons), per min; Substratkonzentration 2 x 10^-4 molar
T4 construct: 1 ml Urin und 1 ml TRIS-Imidazol-Puffer mit pH 7,9; from tissue; host or cells: human urine
T4 sequence (P06870 25-262): as above

SMILES	Menge des durch 1 CU-Einheit Humanplasmin pro Min. freigesetzten Spaltproduktes R-NH2 in Nanomol (Humanplasmin) [1] [Nanomol]	Menge des durch 1 ml Humansputum pro Min. freigesetzten Spaltproduktes R-NH2 in Nanomol (Submandibularis-Kallikrein) [2]	Menge des durch 1 NIH-Einheit Thrombin pro Min. freigesetzten Spaltproduktes R-NH2 in Nanomol (Humanthrombin) [3]	Menge des durch 1 ml Humanurin pro Min. freigesetzten Spaltproduktes R-NH2 in Nanomol (Urinkallikrein) [4]
N=C(N)NCCC[C@H](NC(=O)[C@H](Cc1ccc(O)cc1)NC(=O)[C@H](N)Cc1ccccc1)C(=O)Nc1ccc([N+](=O)[O-])cc1 [Beispiel 46, 2HBr.H-D-Phe-Tyr-Arg-pNA] (H-[dF]-Tyr-Arg-pNA)	843	6,1 Nanomol	2,6 Nanomol	0,26 Nanomol
N=C(N)NCCC[C@H](NC(=O)[C@H](Cc1ccc(O)cc1)NC(=O)[C@H](N)c1ccccc1)C(=O)Nc1ccc([N+](=O)[O-])cc1 [Beispiel 47, 2HBr.H-D-Ph'Gly-Tyr-Arg-pNA] (H-[dPhg]-Tyr-Arg-pNA)	818	7,0 Nanomol	1,0 Nanomol	0,19 Nanomol
C[C@H](NC(=O)[C@H](N)C1CCCCC1)C(=O)N[C@@H](CCCNC(=N)N)C(=O)Nc1ccc([N+](=O)[O-])cc1 [Beispiel 48, 2HBr.H-D-CHG-Ala-Arg-pNA] (H-[dChg]-Ala-Arg-pNA)	239	9,5 Nanomol	158 Nanomol	0,72 Nanomol
C[C@H](NC(=O)[C@H](N)CC1CCCCC1)C(=O)N[C@@H](CCCNC(=N)N)C(=O)Nc1ccc([N+](=O)[O-])cc1 [Beispiel 49, 2HBr.H-D-CHA-Ala-Arg-pNA] (H-[dCha]-Ala-Arg-pNA)	389	10,6 Nanomol	163,5 Nanomol	0,66 Nanomol
CC(C)C[C@H](NC(=O)[C@H](N)Cc1ccccc1)C(=O)N[C@@H](CCCNC(=N)N)C(=O)Nc1ccc([N+](=O)[O-])cc1 [Beispiel 50, 2HBr.H-D-Phe-Leu-Arg-pNA] (H-[dF]-Leu-Arg-pNA)	313	6,8 Nanomol	14,4 Nanomol	0,61 Nanomol
CC(C)C[C@H](NC(=O)[C@H](N)CC1CCC(O)CC1)C(=O)N[C@@H](CCCNC(=N)N)C(=O)Nc1ccc([N+](=O)[O-])cc1 (stereo partly drawn) [Beispiel 51, 2HBr.H-D-CHT-Leu-Arg-pNA]	596	11,7 Nanomol	58,1 Nanomol	0,33 Nanomol
CC(C)C[C@H](NC(=O)[C@H](N)CC1CCCCC1)C(=O)N[C@@H](CCCNC(=N)N)C(=O)Nc1ccc([N+](=O)[O-])cc1 [Beispiel 52, 2HBr.H-D-CHA-Leu-Arg-pNA] (H-[dCha]-Leu-Arg-pNA)	555	8,8 Nanomol	57,6 Nanomol	0,64 Nanomol
CC(C)C[C@@H](N)C(=O)N[C@H](C(=O)N[C@@H](CCCNC(=N)N)C(=O)Nc1ccc([N+](=O)[O-])cc1)c1ccccc1 [Beispiel 53, 2HBr.H-D-Leu-Ph'Gly-Arg-pNA] (H-[dL]-[Phg]-Arg-pNA)	422	25,8 Nanomol	27,4 Nanomol	0,67 Nanomol
CCC[C@@H](N)C(=O)N[C@H](C(=O)N[C@@H](CCCNC(=N)N)C(=O)Nc1ccc([N+](=O)[O-])cc1)c1ccccc1 [Beispiel 54, 2HBr.H-D-Nval-Ph'Gly-Arg-pNA] (H-[dNva]-[Phg]-Arg-pNA)	382	22,9 Nanomol	19,2 Nanomol	0,58 Nanomol
C[C@@H](N)C(=O)N[C@H](C(=O)N[C@@H](CCCNC(=N)N)C(=O)Nc1ccc([N+](=O)[O-])cc1)c1ccccc1 [Beispiel 55, 2HBr.H-D-Ala-Ph'Gly-Arg-pNA] (H-[dA]-[Phg]-Arg-pNA)	141	23,5 Nanomol	4,2 Nanomol	0,42 Nanomol
N=C(N)NCCC[C@H](NC(=O)[C@@H](NC(=O)[C@H](N)CC1CCCCC1)c1ccccc1)C(=O)Nc1ccc([N+](=O)[O-])cc1 [Beispiel 56, 2HBr.H-D-CHA-Ph'Gly-Arg-pNA] (H-[dCha]-[Phg]-Arg-pNA)	559	29,4 Nanomol	120,2 Nanomol	0,64 Nanomol
N=C(N)NCCC[C@H](NC(=O)[C@@H](NC(=O)[C@H](N)CC1CCC(O)CC1)c1ccccc1)C(=O)Nc1ccc([N+](=O)[O-])cc1 (stereo partly drawn) [Beispiel 57, 2HBr.H-D-CHT-Ph'Gly-Arg-pNA]	591	31,1 Nanomol	112,1 Nanomol	0,45 Nanomol
N=C(N)NCCC[C@H](NC(=O)[C@@H](NC(=O)[C@H](N)C1CCCCC1)c1ccccc1)C(=O)Nc1ccc([N+](=O)[O-])cc1 [Beispiel 58, 2HBr.H-D-CHG-Ph'Gly-Arg-pNA] (H-[dChg]-[Phg]-Arg-pNA)	446	22,1 Nanomol	63,7 Nanomol	0,38 Nanomol
N=C(N)NCCC[C@H](NC(=O)[C@@H](NC(=O)[C@H](N)C1CCCCC1)C1CCCCC1)C(=O)Nc1ccc([N+](=O)[O-])cc1 [Beispiel 59, 2HBr.H-D-CHG-CHG-Arg-pNA] (H-[dChg]-[Chg]-Arg-pNA)	101	5,9 Nanomol	7,5 Nanomol	0,33 Nanomol
N=C(N)NCCC[C@H](NC(=O)[C@@H](NC(=O)[C@H]1CCCCN1)C1CCCCC1)C(=O)Nc1ccc([N+](=O)[O-])cc1 [Beispiel 60, 2HBr.H-D-Pip-CHG-Arg-pNA] (H-[dPip]-[Chg]-Arg-pNA)	10	1,4 Nanomol	1,3 Nanomol	0 Nanomol
